Reference: PubChem BioAssay (NCI)
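48-hour exposure; five concentrations; linearly interpolated endpoints. GI50 is the concentration that inhibits growth by half. The concentration for full growth arrest is given as TGI.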

Experiments:
Test in all cases: inhibition of tumour cell growth, NCI panel, 48 h
[1] = test system: DU-145 prostate
[2] = test system: M14 melanoma
[3] = test system: MALME-3M melanoma
[4] = test system: NCI-H23 lung
[5] = test system: RXF 393 renal
[6] = test system: SR leukemia
[7] = test system: SW-620 colon
[8] = test system: UACC-257 melanoma
[9] = test system: MCF7 breast

| Compound | TGI [1] | TGI [2] | TGI [3] | TGI [4] | TGI [5] | TGI [6] | TGI [7] | TGI [8] | TGI [9] | GI50 [1] | GI50 [6] | GI50 [3] | GI50 [9] | GI50 [5] | GI50 [8] |
| --- | --- | --- | --- | --- | --- | --- | --- | --- | --- | --- | --- | --- | --- | --- | --- |
| O=C(NC1CCCCC1)N1CCNC1=S | > 100 µM | > 100 µM | > 100 µM | > 100 µM | > 100 µM | > 100 µM | > 100 µM | > 100 µM | – | – | – | – | – | – | – |
| COc1c(C(=O)CC2c3c(cc4oc(C)cc(=O)c4c3OC)OC(=N)C2c2nc3ccccc3[nH]2)c(O)c(OC)c2occc12 (stereo not drawn) | > 100 µM | > 100 µM | > 100 µM | > 100 µM | > 100 µM | – | > 100 µM | > 100 µM | > 100 µM | – | – | – | – | – | – |
| OC[C@H](O)[C@@H](OCc1ccccc1)[C@H](NCc1ccccc1)c1cccs1 | > 100 µM | > 100 µM | > 100 µM | > 100 µM | – | > 100 µM | > 100 µM | > 100 µM | > 100 µM | – | – | – | – | – | – |
| CCCN1CCN(c2ccc3nc(-c4ccc5nc(-c6ccc(OCC)cc6)[nH]c5c4)[nH]c3c2)CC1 | 2.78 µM | – | – | – | – | 2.58 µM | – | – | – | 1.33 µM | 404 nM | – | – | – | – |
| CC(=O)[C@H]1CC[C@@H]2[C@]1(C)CC=C1[C@]23C=C[C@]2(C[C@@H](O)CC[C@]12C)C(C(=O)O)C3C(=O)O (stereo partly drawn) | > 100 µM | > 100 µM | > 100 µM | > 100 µM | – | – | > 100 µM | > 100 µM | > 100 µM | – | – | – | – | – | – |
| Cn1c(SCc2ccc([N+](=O)[O-])cc2)nnc1C12CC3CC(CC(C3)C1)C2 | > 10 µM | > 10 µM | > 10 µM | > 10 µM | > 10 µM | – | > 10 µM | – | > 10 µM | – | – | – | – | – | – |
| O=[N+]([O-])c1cc(-c2ccc([As](=O)(O)O)cc2)ccc1[As](=O)(O)O | > 100 µM | > 100 µM | > 100 µM | > 100 µM | > 100 µM | > 100 µM | > 100 µM | > 100 µM | – | – | – | – | – | – | – |
| C#CCn1c(=O)c2cc(OC)c(OC)cc2n(CC#C)c1=O | > 10 µM | > 10 µM | > 10 µM | > 10 µM | > 10 µM | – | > 10 µM | > 10 µM | > 10 µM | – | – | – | – | – | – |
| CCc1cc2c(cc1O)CC[C@@H]1[C@@H]2CC[C@]2(C)[C@@H](O)CC[C@@H]12 | 24.5 µM | 19.8 µM | 12.5 µM | 20.6 µM | – | 10.9 µM | 16.6 µM | 20 µM | 10.4 µM | 11.1 µM | – | – | – | – | – |
| Cc1ccc2c(=O)cc(-c3ccccc3)[nH]c2n1 | > 23.7 µM | – | > 100 µM | 16.8 µM | 0.486 µM | – | > 100 µM | > 43.4 µM | > 55 µM | – | – | – | – | – | – |
| O=C(O)Cn1cnc2c(=O)[nH]c(Nc3ccccc3)nc21 | > 100 µM | > 100 µM | > 100 µM | > 100 µM | – | > 100 µM | > 100 µM | > 100 µM | > 100 µM | – | – | – | – | – | – |
| COc1ccc2nc3c(nc2c1)C(C)(C)C=C3c1ccc(Br)cc1 | > 100 µM | > 100 µM | > 100 µM | – | > 100 µM | > 100 µM | 21.9 µM | > 100 µM | > 100 µM | – | – | – | – | – | – |
| CN(C)CCNC(=O)c1cccc2c(NC(CCCN=C(N)N)C(=O)O)c3ccccc3nc12 (stereo not drawn) | > 100 µM | > 100 µM | 23.4 µM | 30.5 µM | – | > 100 µM | > 100 µM | – | > 100 µM | – | – | – | – | – | – |
| O=C(N/N=C/c1ccc(O)cc1)NNCCO | > 100 µM | > 100 µM | > 100 µM | > 100 µM | – | > 100 µM | > 100 µM | > 100 µM | > 100 µM | – | – | – | – | – | – |
| CC(=O)O[C@H]1C(=O)[C@@]2(C)C(C(OC(=O)c3ccccc3)[C@]3(O)CC(OC(=O)C(O)C(NC(=O)c4cccc(Cl)c4)c4ccccc4)C(C)=C1C3(C)C)[C@]1(OC(C)=O)CO[C@@H]1C[C@@H]2O (stereo partly drawn) | 5.58 µM | > 10 µM | > 10 µM | > 10 µM | – | 5.15 µM | > 10 µM | > 10 µM | > 10 µM | – | – | – | – | – | – |
| C=c1c2ccccc2oc2nc3[nH]c(N)c(C#N)c(N)c3c(=N)c12 | > 100 µM | > 100 µM | 78.7 µM | 62.7 µM | > 100 µM | – | > 100 µM | > 100 µM | > 100 µM | – | – | – | – | – | – |
| CNC(=O)/C(C#N)=C(\N)N1CCCC1 | > 100 µM | – | > 100 µM | > 100 µM | > 100 µM | > 100 µM | > 100 µM | – | – | – | – | – | – | – | – |
| CC(=O)OC1CC[C@@]2(C)C(=CC[C@@H]3[C@@H]2CC[C@]2(C)Nc4c(cnn4-c4ccc(F)cc4)C[C@@H]32)C1 (stereo partly drawn) | > 100 µM | > 100 µM | > 77.6 µM | > 100 µM | 11 µM | – | > 100 µM | > 100 µM | > 95.6 µM | – | – | – | – | – | – |
| COc1ccc(CNCCN2C(=O)c3ccc4c5c(ccc(c35)C2=O)C(=O)N(CCNCc2ccc(OC)c(OC)c2OC)C4=O)c(OC)c1OC | – | – | 0.297 µM | – | 1.42 µM | – | – | 0.303 µM | 1.15 µM | – | – | 112 nM | 222 nM | 279 nM | 113 nM |
